Some test systems named below: CAKI-1 renal; DMS 114 small cell lung; HL-60(TB) leukemia; MOLT-4 leukemia; NCI-H23 lung; NCI-H522 lung; NCI/ADR-RES ovarian; OVCAR-3 ovarian; OVCAR-8 ovarian; PC-3 prostate; RPMI-8226 leukemia; SF-268 CNS; SF-295 CNS; SF-539 CNS; SK-MEL-2 melanoma; SK-MEL-5 melanoma; SR leukemia; TK-10 renal; U251 CNS; UACC-257 melanoma.
Holding throughout (test): NCI tumour cell line growth inhibition, 48 h

Molecules are shown by their SMILES.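 Five concentrations, 48 hours, 96-well plates. Definition used: TGI = concentration required for complete inhibition of growth.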

Regarding `CC(NC(=O)/C(C#N)=C/c1ccc2[nH]ccc2c1)c1ccccc1` (stereo not given), the TGI with CAKI-1 renal turned out to be 66 µM; in the experiment on DMS 114 small cell lung, 37.6 µM; with HL-60(TB) leukemia it was 54.8 µM; in the experiment with MOLT-4 leukemia it was 52.3 µM; in the experiment on NCI-H23 lung, 43.3 µM; in the experiment with NCI-H522 lung it was 25.7 µM. In addition, the TGI was above 100 µM in the experiment on NCI/ADR-RES ovarian; 58 µM with OVCAR-3 ovarian; 48.8 µM with OVCAR-8 ovarian; 39.3 µM with PC-3 prostate; above 73.1 µM in the experiment with RPMI-8226 leukemia; 42.6 µM with SF-268 CNS. Further, the TGI was 35.4 µM in the experiment with SF-295 CNS; 34.9 µM with SF-539 CNS; 39.9 µM with SK-MEL-2 melanoma; 33 µM with SK-MEL-5 melanoma; 83.7 µM with SR leukemia; 50.1 µM in the experiment with TK-10 renal. Moreover, the figures for the TGI with U251 CNS and in the experiment with UACC-257 melanoma were 29.4 µM and 38.7 µM, respectively.
Regarding `C=C1CC2(OC1=O)c1ccccc1C=Cc1ccccc12`, the TGI amounted to 6.08 µM in the experiment on CAKI-1 renal; 21 µM in the experiment with DMS 114 small cell lung; 4.86 µM in the experiment on HL-60(TB) leukemia; 5.4 µM with MOLT-4 leukemia; 14.7 µM in the experiment on NCI-H23 lung; 3.35 µM with NCI-H522 lung. Also, the TGI in the experiment with NCI/ADR-RES ovarian stood at 3.06 µM; in the experiment on OVCAR-3 ovarian, 8.9 µM; in the experiment with OVCAR-8 ovarian, 11.7 µM; with PC-3 prostate, 16.3 µM; in the experiment on RPMI-8226 leukemia, 8.68 µM; with SF-268 CNS it was 17.4 µM. The TGI with SF-295 CNS worked out at 32.1 µM; with SF-539 CNS, 6.72 µM; in the experiment on SK-MEL-2 melanoma, 16.5 µM; in the experiment with SK-MEL-5 melanoma, 16.4 µM; in the experiment with SR leukemia it was 9.17 µM; in the experiment on TK-10 renal, 11.1 µM. Besides, the TGI was 15.5 µM in the experiment on U251 CNS and 10.2 µM in the experiment on UACC-257 melanoma.

The values above are taken from PubChem BioAssay (NCI).
